Data on 6 compounds can be found in ChEMBL document CHEMBL1781915, “Potential virtual lead identification in the discovery of renin inhibitors: application of ligand and structure-based pharmacophore modeling approaches” (Eur J Med Chem, 2011).

pIC50: −log10 of the molar value.

This assay concerns the target T1, Renin (Homo sapiens, UniProt P00797).
T1 sequence (P00797 whole entry): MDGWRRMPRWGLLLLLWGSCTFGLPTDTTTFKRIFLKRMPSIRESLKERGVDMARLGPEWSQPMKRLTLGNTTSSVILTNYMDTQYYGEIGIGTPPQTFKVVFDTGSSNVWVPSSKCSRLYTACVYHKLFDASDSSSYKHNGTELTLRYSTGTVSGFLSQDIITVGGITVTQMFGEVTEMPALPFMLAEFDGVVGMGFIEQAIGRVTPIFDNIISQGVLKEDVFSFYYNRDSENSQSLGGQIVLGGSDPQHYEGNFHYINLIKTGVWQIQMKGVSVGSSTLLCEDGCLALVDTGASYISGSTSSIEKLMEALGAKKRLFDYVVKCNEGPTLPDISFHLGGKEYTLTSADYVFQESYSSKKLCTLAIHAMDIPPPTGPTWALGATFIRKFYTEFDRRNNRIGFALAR
In turn, `Cc1cc(Cl)c(OCCOc2ccc(C3=C(C(=O)N(Cc4cccc(C)c4C)C4CC4)C4CNCC(C3)N4)cc2)c(Cl)c1` (stereo unspecified) showed a negative-log IC50 (pIC50) of 9.80.
To `CCCCNC(=O)C(CC(=O)C(CC1CCCCC1)NC(=O)C(Cc1cnc[nH]1)NC(=O)C(Cc1ccccc1)CS(=O)(=O)C(C)(C)C)C(C)C` (stereo unspecified) belongs 9.15.
To `CCCCNC(=O)C(C)CC(O)C(N)CC(C)(C)CC(=O)N1CC(C(=O)OC)Cc2ccccc21` (stereo unspecified) belongs 9.10; to `CCCCNC(=O)C(C)CC(O)C(N)CC(CNC(=O)c1cccc(OCCCOC)c1)C(C)C` (stereo unspecified), 9.05.
Next, `CC(C)(C)S(=O)(=O)CC(Cc1ccccc1)C(=O)NC(Cc1cnc[nH]1)C(=O)NC(CC1CCCCC1)C(O)C(O)C1CC1` (stereo unspecified): 9.00; `COc1ccccc1COCCCOc1ccc(N2C(=O)CNCC2COC2=CC3C(=CC=CN3CCCO)C=C2)cc1` (stereo unspecified): 7.43.

As a reminder, the pIC50 is −log10 of the IC50, conventionally taken in molar units.
